Reference: patent US4891432A, “Phenoxy imidazole compound” (Yamanouchi Pharmaceutical Co., Ltd., priority 1986, dated 1990)
Like-named read-outs stand apart in the source and are kept apart here.

Columns and labels:
[1] = system: mouse leukemia L1210 cells; test: Effectiveness against mouse leukemia L1210 cells (in vitro test), cytotoxicity by trypan blue dye exclusion; format: cell-based; conditions: L1210 cells, 3 days, 37° C., read-out: IC50 (mean dose producing 50%-killing of tumor cells)
Protocol: Effectiveness against mouse leukemia L1210 cells (in vitro test)
A suspension of cells in culture medium was transferred into wells in a microplate in an amount of 1×10^5 L1210-cells/well. Test sample diluted with a culture medium was added to the suspension in each well, and the mixture was incubated on the medium at 37° C. for 3 days in an atmosphere of air containing 5% carbon dioxide.
Thereafter, the incubated cells were recovered from the microplate and the number of live cells was counted by the dye exclusion test using a 0.5% solution of trypan blue and by using a hemocytometer.

Ehrlich solid tumor = test: Test 2: Anti-tumor test against Ehrlich solid tumor; format: in vivo, ddY/SLC mice; conditions: i.p., days 1 through 9, tumor weight day 21; for inhibition in vivo at 50 mg/kg / inhibition in vivo at 100 mg/kg: Mus musculus, Ehrlich, ip, 504 h, read-out: Growth Inhibition Rate
Protocol: Anti-tumor test against Ehrlich solid tumor
Ehrlich tumor cells, 2×10^6, on Day 7 after intraperitoneal transplantation to ddY/SLC mice, were subcutaneously transplanted in the left abdomen of ddY/SLC mice (5week age, male)--10 to a group. The active component was intraperitoneally administered in a definite dose 24 hours after the transplantation. (administration: once per one day; 1 through 9 days)
Growth inhibition rate (%)=(C-T)/C×100
T: mean tumor weight in the active component-administered group
c: mean tumor weight in the control group

Row | Compound | IC50 ([1]; Mus musculus, 72 h) [µM] | inhibition in vivo at 100 mg/kg (Ehrlich solid tumor; 100 mg/kg) [%] | further results
1 | CCOC(=O)C(C)(C)CCCCSc1nnc(SCCCCCn2ccnc2)s1 [Example 42, ethyl 6-[2-[5-(1-imidazolyl)pentylthio)-1,3,4-thiadiazol-5-ylthio]-2,2-dimethylhexanoate] | 4.4 | – | inhibition in vivo at 50 mg/kg (Ehrlich solid tumor; 50 mg/kg): 53.1%
2 | CC(C)(CCCCOc1ccc(OCCCCCn2ccnc2)cc1)C(=O)NCc1ccccc1 [Example 3] | 4 | – | inhibition in vivo at 50 mg/kg (Ehrlich solid tumor; 50 mg/kg): 58.5%
3 | CCOC(=O)C(C)(C)CCCCOc1ccc(OCCCCCSc2nnc(N)s2)cc1 [Example 33] | 7.7 | 59.5 | –
4 | OCCCCCCOc1ccc(OCCCCCn2ccnc2)cc1 [Example 9] | 12 | 30.7 | –
5 | CCOC(=O)C(C)(C)CCCCOc1ccc(OCCCCCSc2nc3ccccc3[nH]2)cc1 [Example 27] | 4.2 | – | –
6 | CCOC(=O)C(C)(C)CCCCOc1ccc(OCCCCCSc2ncnc3[nH]cnc23)cc1 [Example 32] | 2.2 | 57.5 | –
7 | CCOC(=O)C(C)(C)CCCCOc1ccc(OCCCCCSc2nc3ccccc3s2)cc1 [Example 26] | 42.7 | 30 | –
8 | CC(C)(CCCCOc1ccc(OCCCCCSc2ccncc2)cc1)C(N)=O [Example 31] | 2.6 | 48.9 | –
9 | CC(C)(C#N)CCCCOc1ccc(OCCCCCn2ccnc2)cc1 [Example 55, 6-[p-[5-(1-imidazolyl)pentyloxy]phenoxy]-2,2-dimethylhexane-nitrile] | 3.8 | – | inhibition in vivo at 50 mg/kg (Ehrlich solid tumor; 50 mg/kg): 63.1%
10 | CCOC(=O)C(C)(C)CCCCOc1ccc(OCCCCCSc2nc3ncccc3[nH]2)cc1 [Example 43, ethyl 6-[p-[5-(1H-imidazo[4,5-b]pyridin-2-ylthio)pentyloxy]phenoxy]-2,2-dimethylhexanoate] | 8 | 55.5 | –
11 | CCOC(=O)C(C)(C)CCCCOc1cccc(OCCCCCn2ccnc2)c1 [Example 37] | 4.6 | – | –
12 | CCOC(=O)C(C)(C)CCCCOc1ccc(OCCCCCn2cnc3cncnc32)cc1 [Example 39] | 4.1 | – | –
13 | CCOC(=O)C(C)(C)CCCCOc1ccc(OCCCCCOc2cccnc2)cc1 [Example 14] | 4.2 | – | –
14 | CNC(=O)C(C)(C)CCCCOc1ccc(OCCCCCn2ccnc2)cc1 [Example 49, 6-[p-[5-(1-imidazolyl)pentyloxy]phenoxy]-2,2-dimethylhexanoic acid methylamide] | 5.5 | – | –
15 | CC(C)(CCCCOc1ccc(OCCCCCSc2nc3cccnc3[nH]2)cc1)C(N)=O [Example 44] | 3.7 | 46.1 | –
16 | CCOC(=O)C(C)(C)CCCCOc1ccc(OCCCCCOc2ccccc2-c2ccccc2)cc1 [Example 40] | – | 46.9 | –
17 | CCOC(=O)C(C)(C)CCCCOc1ccc(OCCCCCSC2=NCCS2)cc1 [Example 25] | 23.5 | – | –
18 | 6[p-[5-(1-imidazolyl)pentyloxy]phenoxy]-2,2-dimethylhexaneheptylamide [Example 61] | – | – | IC50 [1]: 5.9 µM; Growth Inhibition Rate (Ehrlich solid tumor; 100 mg/kg): 38.9%
19 | CCOC(=O)C(C)(C)CCCCOc1ccc(OCCCCCSc2nccn2C)cc1 [Example 20] | 8.2 | 52.8 | –
20 | CCOC(=O)C(C)(C)CCCCOc1ccc(OCCCCCSc2ncccn2)cc1 [Example 24, ethyl 6-[p-[5-(2-pyrimidylthio)pentyloxy]phenoxy]-2,2-dimethylhexanoate] | 20.6 | 31.7 | –
21 | NC(=O)CCCCCOc1ccc(OCCCCCn2ccnc2)cc1 [Example 56] | 13.8 | 30.2 | –
22 | Cn1nnnc1SCCCCCOc1ccc(OCCCCC(C)(C)C(N)=O)cc1 [Example 34] | 4 | – | –
23 | CC(C)NC(=O)C(C)(C)CCCCOc1ccc(OCCCCCn2ccnc2)cc1 [Example 2] | 7.5 | – | inhibition in vivo at 50 mg/kg (Ehrlich solid tumor; 50 mg/kg): 52.9%
24 | CCOC(=O)C(C)(C)CCCCOc1ccc(OCCCCCn2cncn2)cc1 [Example 48, ethyl 6-[p-[5-(1,2,4-triazol-1-yl)pentyloxy]phenoxy]-2,2-dimethylhexanoate] | 5.5 | 46.3 | –
25 | CCOC(=O)COc1ccc(OCCCCCn2ccnc2)cc1 [Example 10, ethyl p-[5-(1-imidazol-yl)pentyloxy]phenoxyacetate] | – | 23.7 | –

Row | Compound | IC50 ([1]; Mus musculus, 72 h) [µM] | inhibition in vivo at 100 mg/kg (Ehrlich solid tumor; 100 mg/kg) [%] | further results
26 | CCOC(=O)C(C)(C)CCCCOc1ccc(OCCCCCn2cnc3ccccc32)cc1 [Example 36] | 3.8 | – | –
27 | CCOC(=O)C(C)(C)CCCCOc1ccc(OCCCCCSc2cccc[n+]2[O-])cc1 [Example 23] | 6.1 | – | –
28 | CCOC(=O)C(C)(C)CCCCOc1ccc(OCCCCCSc2nnnn2C)cc1 [Example 22, ethyl 6-[p-[5-(1-methyl-5-tetrazolylmercapto)pentyloxy]phenoxy]-2,2-dimethylhexanoate] | 6.7 | 40.2 | –
29 | CC(C)(CCCCOc1ccc(OCCCCCn2ccnc2)cc1)C(=O)Nc1ccccc1 [Example 53] | 4.3 | 49.3 | –
30 | CC(C)(C)OC(=O)C(C)(C)CCCCOc1ccc(OCCCCCn2ccnc2)cc1 [Example 6] | 6.8 | 43.8 | –
31 | CCOC(=O)C(C)(C)CCCCOc1ccc(OCCCCCn2cccc2)cc1 [Example 15] | 28.9 | 38.8 | –
32 | CCOC(=O)C(C)(C)CCCCOc1ccc(OCCCCCOCc2ccccn2)cc1 [Example 17] | 13.7 | – | inhibition in vivo at 50 mg/kg (Ehrlich solid tumor; 50 mg/kg): 36.6%
33 | CCOC(=O)C(C)(C)CCCCOc1ccc(OCCCCCOCc2cccnc2)cc1 [Example 13, ethyl 6-[p-[5-(3-pyridylmethyloxy)pentyloxy]phenoxy]-2,2-dimethylhexanoate] | 7.6 | – | –
34 | CC(C)(CCCCOc1ccc(OCCCCCn2ccnc2)cc1)C(N)=O [Example 1, 6-[p-[5-(1-imidazol-yl)pentyloxy]phenoxy]-2,2-dimethylhexanamide] | 7.2 | 68.5 | –
35 | CCOC(=O)C(C)(C)CCCCOc1ccc(OCCCCCOCCc2ccccn2)cc1 [Example 18] | 9.5 | 34.9 | –
36 | CN(C)C(=O)C(C)(C)CCCCOc1ccc(OCCCCCn2ccnc2)cc1 [Example 50] | 1.8 | – | –
37 | CCOC(=O)C(C)(C)CCCCOc1ccc(OCCCCCOc2ccccn2)cc1 [Example 35, ethyl 6-[p-[5-(2-pyridyloxy)pentyloxy]phenoxy]-2,2-dimethylhexanoate] | 8.6 | 35.9 | –
38 | 6-[3-[6-[5-(1-imidazolyl]pyridadyloxy]]-2,2-dimethylhexanoic acid ethyl ester [Example 60] | – | – | IC50 [1]: 3.7 µM; Growth Inhibition Rate (Ehrlich solid tumor; 50 mg/kg): 40.5%
39 | CC(C)(CCCCOc1ccc(OCCCCCn2ccnc2)cc1)C(=O)NC1CCCCC1 [Example 52] | 3.6 | 55.7 | –
40 | CCOC(=O)C(C)(C)CCCCOc1ccc(OCCCCCOc2ccncc2)cc1 [Example 41] | 7.4 | 38.7 | –
41 | CCOC(=O)C(C)(C)CCCCOc1ccc(OCCCCCSc2nccc(O)n2)cc1 [Example 28] | 18.9 | – | –
42 | CCCCCCCCCCNC(=O)C(C)(C)CCCCOc1ccc(OCCCCCn2ccnc2)cc1 [Example 51] | 0.6 | – | inhibition in vivo at 50 mg/kg (Ehrlich solid tumor; 50 mg/kg): 42.5%
43 | CCCCCCCCCOc1ccc(OCCCCCn2ccnc2)cc1 [Example 7, [p-[5-(1-imidazolyl)pentyloxy]phenoxy]nonane] | 11 | 45 | –
44 | CC(C)(CCCCOc1ccc(OCCCCCn2ccnc2)cc1)C(=O)OCc1ccccc1 [Example 5, benzyl 6-[p-[5-(1-imidazolyl)pentyloxy]phenoxy]-2,2-dimethylhexanoate] | 6.3 | 39.3 | –
45 | CCOC(=O)C(C)(C)CCCCOc1ccc(OCCCCCSc2ccncc2)cc1 [Example 19, ethyl 6-[p-[5-(4-pyridylmercapto)pentyloxy]phenoxy]-2,2-dimethylhexanoate] | 5.7 | 47.6 | –
46 | Cn1ccnc1SCCCCCOc1ccc(OCCCCC(C)(C)C(N)=O)cc1 [Example 30] | 2.3 | 60.9 | –
47 | CC(C)(CCCCOc1ccc(OCCCCCn2cccn2)cc1)C(N)=O [Example 4] | 4.9 | 50.1 | –
48 | COC(=O)CCCCC(=O)Oc1ccc(OCCCCCn2ccnc2)cc1 [Example 12] | 8.5 | – | –
49 | CCOC(=O)C(C)(C)CCCCOc1ccc(OCCCCCn2cccn2)cc1 [Example 16] | 8.2 | 42.2 | –
50 | COc1ccc(OCCCCCn2ccnc2)cc1 [Example 11, 1-[5-(1-imidazolyl)pentyloxy]-4-methoxybenzene] | 40 | 33.4 | –
